Measurements reported in patent publication US6737407B1, “Treatment of obesity” (Metabolic Pharmaceuticals, Ltd., priority 1997, dated 2004).
Where no end group is shown, it is not given here.

Assays:
C57BL/6J (ob/ob) mice = test: Chronic 18-day treatment of obese mice with hGH 177-191: body weight gain, food consumption, adipose tissue weight; format: in vivo, mouse; conditions: for Initial body wt.: treated group, before 18-day daily i.p. 200 μg/kg
Procedure: FIGS. 1A & 1B show the effect of hGH 177-191 peptide on cumulative body weight gains in male (1A) and female (1B) C57BL/6J (ob/ob) mice during the 18-day treatment period. Animals were given a daily intraperitoneal injection of 0.1 ml of either saline or hGH 177-191 (200 μg/kg body weight). Each points represents the mean±SEM of 6 animals.
FIGS. 2A & 2B show the average daily food consumption (g/mouse/day) of C57BL/6J (ob/ob) mice during an 18day treatment period with hGH 177-191. The treatment for the four groups of animals was as described in FIGS. 1A & 1B. Each point represents the mean±SEM of 6 animals.
The animals of the same age and same sex were randomly divided into two groups, housed 6 per cage and maintained on a normal 12-hr light/dark cycle at a constant room temperature of 25° C. in the animal house of the Department of Biochemistry and—Molecular Biology, Monash University, Clayton, Australia. Animals were fed ad libitum on pre-determined quantity of animal pellets (Clark King, Melboume, Australia) and allowed free access to water at all times. The animals were given a daily intraperitoneal (i.p) injection of 0.1 ml of either the synthetic peptide (200-500 μg/kg body weight) or equivalent volume of physiological saline (0.9% sodium chloride) for appropriate number of days. The i.p. injection was administered with a 30G×½″ (0.31×13 mm) needle on a 1-ml disposable tuberculin syringes, and the site of injection was the lower left quadrant of the abdomen of the animals. To study the effects of controlled-delivery of hGH 177-191 and analogues, slow-release peptide-pellets in a diameter of 3 mm were implanted intradermally in the abdominal region of Zucker rats under anaesthesia. The body weight and food intake were monitored for the periods of time as indicated.
Cumulative weight gain and food consumption were determined at 3-day intervals by the measurements of body weight and uneaten food remaining in the cages. The animals were placed in a covered chamber to minimise movement during the weighing procedure. The food consumption data were obtained by subtracting the amount of uneaten food remaining in the cages from the original provision.
The procedure for the isolation and measurement of intact epididymal fat pads was established in previous studies of epididymal growth of GH-deficient (lit/lit) mice. In the present study, white adipose tissues, either whole epididymal or parametrical fat pads, were excised with the identical techniques as previously described^22 from the mice immediately after sacrifice. The tissues were washed in cold physiological saline, blotted and weighed. For ex vivo lipogenic assays, the portions of adipose tissues without blood vessels were used.

[1] = tested on: adipose tissue of the C57BL/6J (ob/ob) mice; test: Ex vivo lipolysis in adipose tissue of treated ob/ob mice (glycerol release); parameters: species or system mouse; conditions: both sexes, ob/ob mice after 18-day treatment
Procedure: FIGS. 6A & 6B depict the ex vivo effect on lipolysis in adipose tissue of the C57BL/6J (ob/ob) male mice (6A) and female mice (6B) after 18-days treatment with hGH 177-191. […] Values are mean±SEM of 12 determinations from 6 animals of each group. The differences between the hGH 177-191 treated and saline control groups were statistically significant.
Adipose tissues were removed from animals and sliced into segments of approximately 200 mg each. Then the tissues were pre-incubated in 25 ml vials containing 2 ml of Krebs-Ringerbicarbonate (KRB) buffer, 4% defatted BSA and 5.5 mM glucose under an atmosphere of carbogen (95%O2/ 5%CO2) at 37° C. for 1 hour. Tissues were then transferred to another vials with fresh medium and the incubation was initiated by adding hGH 177-191 peptide or analogues into the vials. The mixtures were then incubated at 37° C. for 90 minutes. After incubation, the tissues wee removed and aliquots (200 μl) of samples withdrawn from the medium were assayed for the contents of glycerol or free fatty acid (FFA) either by the enzyme assay (glycerol kinase) or calorimetric (copper-dye) spectrometry. The NADH or color produced was then monitored by the absorption at 340 nm and 610 nm, respectively.

hormone-sensitive lipase = test: Hormone-sensitive lipase (HSL) assay in isolated adipocytes; format: cell-based, rat
Procedure: The enzyme was expressed as U/mg protein, where the release of 1 nmole of oleic acid per hour was considered as 1 Unit of enzyme activity.
Hormone-sensitive lipase (HSL) activity of isolated adipocytes was used as a model to evaluate the lipolytic effect of hGH 177-191 peptide and analogues. In this assay [C^14]-triolein was used as a substrate by HSL. The amount of hydrolyzed [C^14]-oleic acid was determined and used as an index of HSL activity.
The adipocytes were prepared from the epididymal fat pads of male Zucker fatty (fa/fa) rats by collagenase digestion. Fat pads (5 g) were finely-cut into small (2-3 mm) pieces and placed in a siliconised glass vial containing 10 ml digestion medium. […] The isolated adipocytes were resuspended with 10 ml collagen-free buffer and the concentration of adipocytes was estimated by counting an aliquot of a pre-determined volume of cells on a microscope slide. […]
The HSL activity was measured at 37° C. for 1 hour in a final volume of 200 μl, containing 10 μmoles phosphate buffer (pH 7.0). […] The [C^14]-radioactivity was measured by a liquid scintillation counter. […] The HSL activity was expressed as U/mg protein, where the release of 1 nmole of oleic acid per hour was defined as 1 U of enzyme activity.

[2] = female ob/ob mice, 18-day daily i.p. 200 μg/kg
[3] = male ob/ob mice, 18-day daily i.p. 200 μg/kg

effect on hormone-sensitive lipase (in words) (hormone-sensitive lipase): effective in stimulating
Sequence: LRIVQCRSVEGSCGF (cysteine pairing not given here) [Ref No. 9401]
average daily body weight gain lower than control (C57BL/6J (ob/ob) mice; both male and female ob/ob mice): approximately 27% | Adipose tissue (intact parametrical fat pads) (C57BL/6J (ob/ob) mice; [2]): 3.26 g | Body wt. gain (C57BL/6J (ob/ob) mice; [2]): 4.0 g | Final body wt. (C57BL/6J (ob/ob) mice; [2]): 52.2 g | daily body weight gain (C57BL/6J (ob/ob) mice; [2]): 0.22 ± 0.04 g/day | reduction of adipose tissue weight versus control (C57BL/6J (ob/ob) mice; female ob/ob mice, parametrical fat pads): ≤ 12% | Initial body wt. (C57BL/6J (ob/ob) mice; female ob/ob mice): 48.2 g | cumulative body weight gain versus control (in words) (C57BL/6J (ob/ob) mice; male and female ob/ob mice, 18-day daily i.p. 200 μg/kg): clear reduction | average daily food consumption versus control (in words) (C57BL/6J (ob/ob) mice; male and female ob/ob mice, 18-day treatment): no significant difference | Adipose tissue (intact epididymal fat pads) (C57BL/6J (ob/ob) mice; [3]): 2.52 ± 0.25 g | Body wt. gain (C57BL/6J (ob/ob) mice; [3]): 2.9 ± 0.6 g | Final body wt. (C57BL/6J (ob/ob) mice; [3]): 51.5 ± 2.3 g | daily body weight gain (C57BL/6J (ob/ob) mice; [3]): 0.16 ± 0.04 g/day | reduction of adipose tissue weight versus control (C57BL/6J (ob/ob) mice; male ob/ob mice, epididymal fat pads): up to 20% | Initial body wt. (C57BL/6J (ob/ob) mice; male ob/ob mice): 48.6 ± 2.0 g | lipolytic activity in adipose tissues of treated animals (in words) [1]: increase significantly
